The target in assay [1] is Casein kinase I isoform alpha (Homo sapiens) (UniProt P48729). Briefly: Inhibition of human full length CSNK1A1 expressed in baculovirus assessed as substrate phosphorylation using fluorescence-labelled peptides as substrate at 0.2 uM after 90 mins by microfluidic peptide phosphorylation assay.
Assay [2] concerns the target Casein kinase I isoform delta (Homo sapiens) (UniProt P48730). Briefly: Inhibition of human CK1D catalytic domain expressed in Escherichia coli cell assessed as substrate phosphorylation using fluorescence-labelled peptides as substrate at 9 uM after 90 mins by microfluidic peptide phosphorylation assay.
Assay [3] addresses T1, MAP kinase-activated protein kinase 5 (Homo sapiens) (UniProt Q8IW41).
T1 sequence (whole entry): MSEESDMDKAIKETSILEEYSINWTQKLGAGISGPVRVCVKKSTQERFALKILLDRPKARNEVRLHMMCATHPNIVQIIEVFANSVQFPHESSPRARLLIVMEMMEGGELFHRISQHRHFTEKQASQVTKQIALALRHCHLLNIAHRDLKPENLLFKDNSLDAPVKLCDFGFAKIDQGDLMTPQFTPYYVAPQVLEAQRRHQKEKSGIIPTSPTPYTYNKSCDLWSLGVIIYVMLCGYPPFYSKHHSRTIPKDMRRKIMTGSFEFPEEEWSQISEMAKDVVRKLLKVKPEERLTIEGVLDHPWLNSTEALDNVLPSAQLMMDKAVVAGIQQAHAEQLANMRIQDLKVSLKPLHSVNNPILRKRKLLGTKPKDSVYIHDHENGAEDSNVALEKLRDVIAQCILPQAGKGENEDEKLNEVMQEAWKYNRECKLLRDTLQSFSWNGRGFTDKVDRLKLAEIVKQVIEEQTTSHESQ
Briefly: Inhibition of human full length PRAK expressed in baculovirus assessed as substrate phosphorylation using fluorescence-labelled peptides as substrate at 8 uM after 90 mins by microfluidic peptide phosphorylation assay.

Assay [4] concerns the target T2, Calcium/calmodulin-dependent protein kinase type IV (Homo sapiens) (UniProt Q16566).
T2 sequence (whole entry): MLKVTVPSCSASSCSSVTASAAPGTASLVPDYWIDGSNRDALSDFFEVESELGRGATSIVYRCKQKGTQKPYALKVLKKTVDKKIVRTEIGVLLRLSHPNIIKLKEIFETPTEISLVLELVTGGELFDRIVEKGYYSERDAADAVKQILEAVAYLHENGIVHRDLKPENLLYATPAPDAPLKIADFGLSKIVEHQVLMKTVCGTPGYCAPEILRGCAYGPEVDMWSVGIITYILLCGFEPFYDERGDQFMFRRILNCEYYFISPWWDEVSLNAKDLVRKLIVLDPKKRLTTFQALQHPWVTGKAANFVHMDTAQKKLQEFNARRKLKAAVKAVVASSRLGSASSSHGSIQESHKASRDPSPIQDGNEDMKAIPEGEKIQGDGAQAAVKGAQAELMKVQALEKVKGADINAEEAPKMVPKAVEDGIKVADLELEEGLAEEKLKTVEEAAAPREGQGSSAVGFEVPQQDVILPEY
Briefly: Inhibition of human full length CAMK4 expressed in baculovirus assessed as substrate phosphorylation using fluorescence-labelled peptides as substrate at 8 uM after 90 mins by microfluidic peptide phosphorylation assay.

Assay [5] concerns T3, Receptor-type tyrosine-protein kinase FLT3 (Homo sapiens), P36888 [D835Y].
T3 sequence (whole entry): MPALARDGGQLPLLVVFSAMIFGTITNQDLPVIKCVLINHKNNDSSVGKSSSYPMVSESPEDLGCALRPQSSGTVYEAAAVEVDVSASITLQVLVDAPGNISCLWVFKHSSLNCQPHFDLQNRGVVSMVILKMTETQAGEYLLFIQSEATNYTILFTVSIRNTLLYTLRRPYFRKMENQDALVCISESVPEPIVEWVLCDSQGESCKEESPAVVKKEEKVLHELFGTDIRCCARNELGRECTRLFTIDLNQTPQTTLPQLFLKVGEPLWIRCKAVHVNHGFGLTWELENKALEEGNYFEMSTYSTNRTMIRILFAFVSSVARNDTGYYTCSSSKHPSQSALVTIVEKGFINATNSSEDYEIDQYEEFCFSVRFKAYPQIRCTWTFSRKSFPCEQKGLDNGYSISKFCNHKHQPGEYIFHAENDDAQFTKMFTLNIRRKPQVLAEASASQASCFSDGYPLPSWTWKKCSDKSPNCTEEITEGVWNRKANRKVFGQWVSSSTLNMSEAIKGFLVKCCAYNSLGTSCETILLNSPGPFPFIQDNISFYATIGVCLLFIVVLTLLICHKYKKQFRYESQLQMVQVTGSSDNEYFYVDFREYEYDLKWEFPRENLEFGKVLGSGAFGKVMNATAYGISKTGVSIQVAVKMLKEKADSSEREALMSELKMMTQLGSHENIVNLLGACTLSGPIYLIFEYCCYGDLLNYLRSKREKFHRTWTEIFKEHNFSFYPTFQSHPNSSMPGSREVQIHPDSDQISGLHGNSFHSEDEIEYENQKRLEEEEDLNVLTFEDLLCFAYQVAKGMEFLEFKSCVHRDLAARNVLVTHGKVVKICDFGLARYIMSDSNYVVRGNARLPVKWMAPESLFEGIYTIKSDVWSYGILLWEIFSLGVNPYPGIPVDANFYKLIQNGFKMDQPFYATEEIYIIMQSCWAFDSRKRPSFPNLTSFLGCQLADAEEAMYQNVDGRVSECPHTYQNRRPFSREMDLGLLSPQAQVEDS
Nature of the assay: Inhibition of human FLT3 D835Y mutant catalytic domain expressed in baculovirus assessed as substrate phosphorylation using fluorescence-labelled peptides as substrate at […] after 90 mins by microfluidic peptide phosphorylation assay.

Assay [6] has as its target Hepatocyte growth factor receptor (Homo sapiens) (UniProt P08581). Briefly: Inhibition of human MET cytoplasmic domain expressed in baculovirus assessed as substrate phosphorylation using fluorescence-labelled peptides as substrate at 0.06 uM after 90 mins by microfluidic peptide phosphorylation assay.
In assay [7] the target is T4, Mitogen-activated protein kinase 13 (Homo sapiens) (UniProt O15264).
T4 sequence (whole entry): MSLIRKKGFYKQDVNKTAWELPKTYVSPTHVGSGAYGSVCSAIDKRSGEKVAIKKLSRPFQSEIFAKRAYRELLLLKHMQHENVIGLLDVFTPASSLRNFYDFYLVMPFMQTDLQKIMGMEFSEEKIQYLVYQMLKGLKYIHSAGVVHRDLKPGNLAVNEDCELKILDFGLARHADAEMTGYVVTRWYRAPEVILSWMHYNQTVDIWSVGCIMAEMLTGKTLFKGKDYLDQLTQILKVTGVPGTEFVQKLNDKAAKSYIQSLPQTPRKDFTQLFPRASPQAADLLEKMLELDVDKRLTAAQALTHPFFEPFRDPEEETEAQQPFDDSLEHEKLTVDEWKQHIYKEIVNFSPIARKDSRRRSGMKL
Briefly: Inhibition of human full length p38 delta expressed in Escherichia coli cell assessed as substrate phosphorylation using fluorescence-labelled peptides as substrate at 2 uM after 90 mins by microfluidic peptide phosphorylation assay.

Assay [8] deals with Tyrosine-protein kinase ABL1 (Homo sapiens), P00519 [Q252H]. Nature of the assay: Inhibition of human truncated ABL Q252H mutant expressed in baculovirus assessed as substrate phosphorylation using fluorescence-labelled peptides as substrate at 70 uM after 90 mins by microfluidic peptide phosphorylation assay.

The values below come from ChEMBL document CHEMBL3132769, “Fragment growing to retain or alter the selectivity of anchored kinase hinge-binding fragments” (Medchemcomm, 2014).

In general, inhibition refers to the percentage by which the read-out fell short of the control.

Hepatocyte growth factor receptor (Homo sapiens), sequence (P08581 whole entry, the tested form may be a part): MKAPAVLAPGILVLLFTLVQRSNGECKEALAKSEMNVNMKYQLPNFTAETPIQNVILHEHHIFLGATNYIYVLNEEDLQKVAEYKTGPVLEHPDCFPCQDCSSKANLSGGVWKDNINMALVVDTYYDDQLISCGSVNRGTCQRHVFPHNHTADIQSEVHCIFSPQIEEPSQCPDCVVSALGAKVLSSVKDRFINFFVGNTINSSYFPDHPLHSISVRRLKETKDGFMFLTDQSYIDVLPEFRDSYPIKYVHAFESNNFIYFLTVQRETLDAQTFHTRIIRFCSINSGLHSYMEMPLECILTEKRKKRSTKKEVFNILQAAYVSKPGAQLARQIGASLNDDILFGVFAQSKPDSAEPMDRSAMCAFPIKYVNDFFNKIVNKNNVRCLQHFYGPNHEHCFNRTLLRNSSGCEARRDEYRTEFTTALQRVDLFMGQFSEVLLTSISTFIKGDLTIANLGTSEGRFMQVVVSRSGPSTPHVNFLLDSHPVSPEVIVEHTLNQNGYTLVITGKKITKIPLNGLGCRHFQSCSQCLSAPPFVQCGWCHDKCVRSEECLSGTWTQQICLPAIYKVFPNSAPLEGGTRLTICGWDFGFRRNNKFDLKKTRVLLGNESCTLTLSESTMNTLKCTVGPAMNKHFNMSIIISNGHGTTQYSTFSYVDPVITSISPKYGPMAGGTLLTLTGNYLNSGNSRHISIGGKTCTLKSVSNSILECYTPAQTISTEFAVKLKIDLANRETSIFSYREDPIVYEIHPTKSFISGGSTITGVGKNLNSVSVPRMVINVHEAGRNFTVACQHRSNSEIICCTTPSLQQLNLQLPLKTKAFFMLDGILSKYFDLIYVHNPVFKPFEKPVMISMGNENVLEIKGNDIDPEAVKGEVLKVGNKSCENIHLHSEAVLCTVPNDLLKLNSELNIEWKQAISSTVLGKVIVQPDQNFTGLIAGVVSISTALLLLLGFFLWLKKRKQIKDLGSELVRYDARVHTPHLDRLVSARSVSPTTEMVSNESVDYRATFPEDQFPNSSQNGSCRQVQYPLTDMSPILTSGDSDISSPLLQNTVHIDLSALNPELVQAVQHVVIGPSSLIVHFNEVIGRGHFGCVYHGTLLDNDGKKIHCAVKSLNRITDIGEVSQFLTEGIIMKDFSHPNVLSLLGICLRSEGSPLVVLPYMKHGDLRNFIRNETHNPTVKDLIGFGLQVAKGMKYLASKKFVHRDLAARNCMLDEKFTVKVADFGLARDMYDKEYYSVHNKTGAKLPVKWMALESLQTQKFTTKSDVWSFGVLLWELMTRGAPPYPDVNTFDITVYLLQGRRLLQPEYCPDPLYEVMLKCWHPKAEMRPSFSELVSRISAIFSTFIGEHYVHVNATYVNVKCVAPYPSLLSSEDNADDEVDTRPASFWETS
Casein kinase I isoform alpha (Homo sapiens), sequence (P48729 2-337 limits assumed): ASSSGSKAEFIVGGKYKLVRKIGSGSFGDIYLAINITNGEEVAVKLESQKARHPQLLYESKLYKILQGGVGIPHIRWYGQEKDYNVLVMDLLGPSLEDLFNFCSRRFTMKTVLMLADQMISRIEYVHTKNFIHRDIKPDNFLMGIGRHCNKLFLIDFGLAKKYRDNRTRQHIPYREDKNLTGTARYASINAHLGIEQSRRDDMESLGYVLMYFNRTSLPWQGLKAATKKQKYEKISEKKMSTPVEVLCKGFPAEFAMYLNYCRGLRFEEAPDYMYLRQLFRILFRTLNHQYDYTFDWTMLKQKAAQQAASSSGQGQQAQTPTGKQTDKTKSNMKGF
Casein kinase I isoform delta (Homo sapiens), sequence (P48730 whole entry, looked up, the tested form may be a part, canonical isoform): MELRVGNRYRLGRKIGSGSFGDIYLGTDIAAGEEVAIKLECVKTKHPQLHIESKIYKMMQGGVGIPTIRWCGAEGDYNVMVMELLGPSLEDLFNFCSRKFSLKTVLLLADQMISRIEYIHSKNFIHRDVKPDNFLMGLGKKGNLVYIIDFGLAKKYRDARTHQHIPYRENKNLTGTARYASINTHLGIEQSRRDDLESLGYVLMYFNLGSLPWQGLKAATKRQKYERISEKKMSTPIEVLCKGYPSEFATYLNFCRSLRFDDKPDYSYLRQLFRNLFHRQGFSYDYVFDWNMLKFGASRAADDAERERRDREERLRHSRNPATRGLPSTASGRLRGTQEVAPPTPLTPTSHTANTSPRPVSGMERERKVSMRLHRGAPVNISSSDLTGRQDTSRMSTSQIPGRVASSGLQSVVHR

For the compound `Clc1ccc(C2(c3ccc(-c4ncnc5[nH]cnc45)cc3)CCNCC2)cc1`, the inhibition in assay [1] stood at 4%.

In the case of `NCC1CN(c2ncnc3[nH]c4cnccc4c23)CCO1` (stereo not drawn), in assay [2], the inhibition was found to be 39.5%.

Take `NCC1CCN(c2ncnc3[nH]ccc23)CC1`: the values for the inhibition in assay [3] and in assay [4] were 51.5% and 43%, respectively.

With `COC(=O)c1cnc(Nc2cnc(C#N)cn2)cc1NCC1CCNCC1`, the inhibition in assay [5] was determined as 63%.

In the case of `NC1(Cc2ccc(Cl)cc2)CCN(c2ncnc3[nH]ccc23)CC1`, the inhibition in assay [6] is 0%.

Consider `NC1CCN(c2ncnc3[nH]ccc23)CC1`, for which, in assay [7], the inhibition was 8%.

Consider `CNCc1ccc(-c2ncnc3[nH]cnc23)cc1`, for which, in assay [8], the inhibition amounted to 39%.
